Experimental data reported in patent US10137105B2, “Combination treatment protocol” (Bionomics Limited, priority 2015, dated 2018).

Experiments:
[1] = tested on: normal peripheral lymphocytes; test: Toxicity to normal peripheral lymphocytes (PARP cleavage, chromatin condensation); type: cell-based, human; settings: for PARP cleavage / apoptosis in normal peripheral lymphocytes: 0-1 μM EX2, 1-10 nM ABT-199 or 100 nM dinaciclib, each alone
Experimental: (§1) Cells were incubated for […] with 2 μg/mL Hoechst 33342 at 37° C. and visualized with a fluorescent microscope. At least 200 cells were scored for each sample. The percentage of cells with condensed chromatin was recorded.
(§2) Cells were lysed in urea sample buffer [4 mol/L urea, 10% β-mercaptoethanol, 6% w/v SDS, 125 mmol/L Tris (pH 6.8), 0.01% w/v bromphenol blue, and protease/phosphatase inhibitor cocktail] and boiled for 5 min. Proteins were subsequently separated by SDS-PAGE (10 or 15% w/v) and transferred to polyvinylidene difluoride membrane (Millipore). Membranes were blocked with 5% w/v nonfat milk in TBS and 0.05% w/v Tween 20, and were probed with the appropriate primary antibody overnight. Subsequently, membranes were washed in TBS and 0.05% w/v Tween 20, and then incubated with secondary antibody conjugated to horseradish peroxidase. Proteins were visualized by enhanced chemiluminescence (Amersham). Actin was used as a loading control in Western blots.
To test the potential toxicity of EX2, normal peripheral lymphocytes were isolated from a healthy volunteer and incubated with EX2 alone or in combination with ABT-199.

hERG channel = hERG channel (Homo sapiens, UniProt Q12809); test: hERG channel inhibition, in vitro testing; type: biochemical
Chain of hERG channel (Q12809 whole entry): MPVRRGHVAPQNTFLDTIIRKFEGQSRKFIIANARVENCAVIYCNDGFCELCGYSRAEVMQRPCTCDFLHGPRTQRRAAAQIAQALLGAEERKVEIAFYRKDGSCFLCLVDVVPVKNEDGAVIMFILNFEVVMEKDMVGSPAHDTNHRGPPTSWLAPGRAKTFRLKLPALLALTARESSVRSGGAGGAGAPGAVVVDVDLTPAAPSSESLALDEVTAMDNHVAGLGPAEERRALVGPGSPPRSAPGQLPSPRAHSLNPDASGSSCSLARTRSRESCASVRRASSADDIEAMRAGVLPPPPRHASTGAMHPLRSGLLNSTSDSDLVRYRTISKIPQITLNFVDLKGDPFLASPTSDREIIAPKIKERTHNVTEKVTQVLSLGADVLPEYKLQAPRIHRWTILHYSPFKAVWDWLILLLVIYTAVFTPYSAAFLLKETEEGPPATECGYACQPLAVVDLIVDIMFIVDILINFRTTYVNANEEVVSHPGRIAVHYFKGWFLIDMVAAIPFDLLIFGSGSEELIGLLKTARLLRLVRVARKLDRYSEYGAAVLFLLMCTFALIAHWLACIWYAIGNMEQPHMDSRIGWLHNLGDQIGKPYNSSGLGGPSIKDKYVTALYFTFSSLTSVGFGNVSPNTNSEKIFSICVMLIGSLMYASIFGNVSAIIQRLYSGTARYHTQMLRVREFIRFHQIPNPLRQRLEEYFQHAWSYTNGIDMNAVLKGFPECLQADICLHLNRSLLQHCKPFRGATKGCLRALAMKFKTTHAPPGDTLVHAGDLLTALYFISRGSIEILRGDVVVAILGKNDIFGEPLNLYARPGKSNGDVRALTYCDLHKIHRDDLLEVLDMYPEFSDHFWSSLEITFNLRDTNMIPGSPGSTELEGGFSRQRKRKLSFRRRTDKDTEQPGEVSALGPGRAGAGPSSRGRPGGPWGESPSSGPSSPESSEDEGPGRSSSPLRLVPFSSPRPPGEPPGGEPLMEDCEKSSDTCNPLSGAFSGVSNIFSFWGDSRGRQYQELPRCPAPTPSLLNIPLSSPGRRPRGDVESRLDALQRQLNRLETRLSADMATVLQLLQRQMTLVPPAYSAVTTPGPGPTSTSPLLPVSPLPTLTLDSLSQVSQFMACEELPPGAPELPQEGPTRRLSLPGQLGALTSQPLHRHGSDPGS
Excerpt: (§3) Signs of cardiomyopathy were decreased in severity and incidence by 14 days after the 2-cycles of treatment, indicating recovery or reversibility of the effects. The implications of these findings for humans are not clear as these cardiovascular effects were not observed in dog toxicity studies. […] Thus an effect on the hERG channel is expected to be slight, if any, at efficacious doses of Example 2.

CLL cells on L4.5 stroma = test: Apoptosis of CLL cells co-incubated 24 h on CD154+ L4.5 stromal cells; type: cell-based, human
Experimental: (§4) CLL cells were obtained from consented patients at the Norris Cotton Cancer Center. Cells were purified by centrifugation in Ficoll-Paque PLUS from 10 mL of blond. Lymphocytes were plated in RPMI 1640 plus 10% serum at 1×10^6 cells/mL after three washes in PBS+2 mmol/L EDTA. Cells were either incubated immediately with reagents or after 24 h incubation with confluent layers of CD154+ stromal cells (L 4.5) at a ratio of 5:1.
as §1
The experiments above have shown that CLL cells are usually very sensitive to EX2. However, these cells were isolated from peripheral blood, and the real problem to curing CLL is to be able to kill cells that reside in the lymph node or bone marrow niche. To mimic this niche, we have used L4.5 cells that express CD154. Co-incubation of CLL cells on this stroma for 24 h elicits marked resistance to many drugs including the BCL-2 inhibitor ABT-199 (FIG. 7). […] However, when ABT-199 and EX2 were combined, marked apoptosis was again observed. For example, 100 nM ABT-199 alone induced about 10% apoptosis, whereas when combined with 1 μM EX2, >60% apoptosis was observed within 6 h. The combination of 1 μM EX2 and 1 μM ABT-199 induced about 80% apoptosis. […]

microtubules in PBMCs = test: Disruption of microtubules in PBMCs of dosed subjects; type: in vivo, human; settings: doses of 12.6 and 16 mg/m^2
Jeko-1 cells = test: Kinetics of apoptosis in Jeko-1 cells (Western blots); type: cell-based; settings: 20 nM EX2 (FIG. 6)
Experimental: FIG. 6: Kinetics of compounds of Formula (I) induced apoptosis in Jeko-1 cells. Western blots of Jeko-1 cells incubated with 20 nM compounds of Formula (I). “C”=a control cell line incubated with 2 μM vinblastine as a positive control for protein expression.
as §2

advanced solid tumors = test: Phase I study of Example 2 in subjects with advanced solid tumors; type: in vivo, human
Experimental: (§5) The recommended Phase 2 dose (RP2D) of Example 2 is evaluated in subjects with advanced solid tumors. Dosing is at a level of 2.1 mg/m^2. The dose of 16 mg/m^2 is deemed to be an MTD. In this study, adverse events are seen across all dose groups. The two most common categories of AE's are gastrointestinal disorders (nausea, vomiting, constipation) and general disorders (predominantly fatigue). Disorders related to bone marrow suppression are rare. Anemia is reported in one patient at a dose level of 8.4 mg/m^2 and in two patients at a dose level of 18.9 mg/m^2. […] Similarly, in a phase 11 study of Example 2 in patients with malignant pleural mesothelioma grade 1-2 gastrointestinal and general disorders are the predominant AE's: in 87% and 50% of patients correspondingly. Grade 3 fatigue is observed in 8% of patients. Finally, grade 1-2 anemia is reported in 33% of study participants.
Thus, this study employs 8 mg/m^2 iv on days 1 and 8 (cycle 1) or 8 and 15 (cycles 2-6) of a 21-day cycle as a starting dose of Example 2. This dose corresponds to a dose one tier below that sufficient to induce disruption of microtubules, yet also is lower than the currently established MTD in a Phase I study of Example 2 in patients with solid tumors. […] The study follows a standard 3+3 Phase I design (between 3 and 6 patients are enrolled at each dose tier). The dose of the drug is escalated to 16 mg/m^2, toxicities permitting. If toxicities emerge at dose level 1, the dose of Example 2 is de-escalated to 4 mg/m^2. […] Preliminary assessment of response and pharmacodynamic endpoints of treatment with Example 2 is assessed at several dose levels allowing for more careful selection of RP2D in CLL.

[2] = 2-cycle rat toxicity study; type: in vivo; settings: rats, 2 cycles; decreased in severity and incidence by 14 days after treatment
Excerpt: as §3

CLL cells [3] = test: Chromatin condensation (Hoechst 33342) apoptosis scoring in freshly isolated CLL cells; type: cell-based, human
Experimental: as §4, §1

[4] = Cardiovascular safety pharmacology study in telemetered dogs; type: in vivo, dog; settings: doses up to 0.8 mg/kg (highest dose assessed)
Excerpt: as §3

[5] = tested on: malignant pleural mesothelioma; test: Phase II study of Example 2 in patients with malignant pleural mesothelioma; type: in vivo, human
Experimental: as §5

[6] = Dog toxicity studies, cardiovascular effects; type: in vivo; settings: dogs
Excerpt: as §3

CLL cells [7] = test: Immunoblot analysis (PARP cleavage, pJNK, Noxa) in CLL cells; type: cell-based, human
Experimental: as §4, §2

[8] = healthy volunteer, 6 h, 0-1 μM EX2

Question: Which “PARP cleavage / apoptosis in normal peripheral lymphocytes” value ([1]; healthy volunteer, 6 h) does the source give for CCc1cnn2c(NCc3ccc[n+]([O-])c3)cc(N3CCCC[C@H]3CCO)nc12 [Dinaciclib, reference compound] here?
Answer: The value was “some apoptosis”.

Question: For COc1cc(C(=O)c2c(C)oc3c(O)c(OC)ccc23)cc(OC)c1OC [Example 1, 2-Methyl-7-hydroxy-3-(3,4,5-trimethoxybenzoyl)-6-methoxybenzofuran], which IC50 (hERG channel) is on record?
Answer: Its IC50 is > 6.71 µM.

Question: With CC1(C)CCC(CN2CCN(c3ccc(C(=O)NS(=O)(=O)c4ccc(NCC5CCOCC5)c([N+](=O)[O-])c4)c(Oc4cnc5[nH]ccc5c4)c3)CC2)=C(c2ccc(Cl)cc2)C1 [ABT-199, reference compound] as the molecule, how does the “chromatin condensation in normal peripheral lymphocytes” value ([1]; ABT-199 1-10 nM with or without EX2, 6 h) read?
Answer: The value was “no chromatin condensation was observed”.

Question: And the “PARP cleavage / apoptosis in normal peripheral lymphocytes” value ([1]; healthy volunteer, 6 h)?
Answer: The value was “slight PARP cleavage”.

Question: What about the apoptosis (CLL cells on L4.5 stroma; 100 nM ABT-199 alone, CLL cells on stroma, 6 h) of the same molecule?
Answer: Its apoptosis is “about 10%”.

Question: What does the source list for COc1cc(C(=O)c2c(C)oc3c(OP(=O)([O-])[O-])c(OC)ccc23)cc(OC)c1OC.[Na+].[Na+] [Example 2, Disodium 6-methoxy-2-methyl-3-(3,4,5-trimethoxybenzoyl)benzofuran-7-yl phosphate]?
Answer: Noxa induction in normal peripheral lymphocytes [1, 8]: no Noxa was induced; pJNK in normal peripheral lymphocytes [1, 8]: activated; PARP cleavage / apoptosis in normal peripheral lymphocytes ([1]; healthy volunteer, 6 h): no significant PARP cleavage or chromatin condensation; effect on microtubules in PBMCs (microtubules in PBMCs): briefly disrupt microtubules; time by which apoptosis was complete (Jeko-1 cells): up to 24 h; IC50 (hERG channel): > 979 µM; anemia, patients reported (advanced solid tumors; dose level 8.4 mg/m^2): one patient; anemia, patients reported (advanced solid tumors; dose level 18.9 mg/m^2): two patients; grade 4 events (advanced solid tumors; dose level 18.9 mg/m^2, same subject): Two grade 4 events (myocardial infarction and peripheral neuropathy); MTD (advanced solid tumors; subjects with advanced solid tumors): 16 mg/m^2; cardiac finding [2]: dose-dependent, reversible cardiomyopathy; potency as inducer of apoptosis compared with vinblastine and combretastatin A4 (CLL cells [3]; chromatin condensation and PARP cleavage, 6 h, 3-6 patients): more potent inducer of apoptosis; concentration at which apoptosis (chromatin condensation) was observed (CLL cells [3]; freshly isolated CLL cells, media with 0-1 μM EX2, 6 h (FIG. 1)): 10 to 100 nM; apoptosis of co-cultured CLL cells, EX2 alone (CLL cells on L4.5 stroma; 1 μM EX2, 24 h on L4.5 stroma then 6 h drug): no apoptosis observed; effects on cardiovascular or respiratory function [4]: no effects on cardiovascular or respiratory function; Grade 3 fatigue, patients [5]: 8%; grade 1-2 anemia, study participants [5]: 33%; grade 1-2 gastrointestinal disorders, patients [5]: 87%; grade 1-2 general disorders, patients [5]: 50%; effects on the cardiovascular system [6]: no effects on the cardiovascular system; PARP cleavage in presence of JNK inhibitor VIII (CLL cells [7]; 0-1 μM EX2, 6 h, with JNK inhibitor VIII): completely prevented; PARP cleavage by 24 h (CLL cells [7]; 20 nM, patient 114, incubated up to 24 h (FIG. 5)): almost total cleavage of PARP; JNK activation and PARP cleavage five hours after removing EX2 (CLL cells [7]; 1 h pulse treatment, then 5 h without EX2, versus continuous incubation): still observed albeit slightly less; concentration at which apoptosis, pJNK and Noxa expression began to appear (CLL cells [7]; 6 h, patient 49 (FIG. 2A)): 5 nM; time to activation of JNK (CLL cells [7]; CLL cells incubated with EX2): less than one hour; pJNK and NOXA in protein lysates (CLL cells [7]; same concentrations of EX2 (10-100 nM), 6 h): increased
